# Read-outs that look alike come from different tables or passages of the source.
# How the values were obtained:
# CHI Log D procedure = assay type: physicochemical; details: for CHI Log D: pH 7.4
# [1] = molecular target: T1, full-length beta-Catenin (Uniprot ID P35222) (Homo sapiens, UniProt P35222); assay: Fluorescence polarization IC50 (beta-catenin / 5FAM-TCF4 10-53 competition); assay type: binding
# T1 construct: 10 nM full-length beta-Catenin (Uniprot ID P35222)
# T1 sequence (P35222 1-781): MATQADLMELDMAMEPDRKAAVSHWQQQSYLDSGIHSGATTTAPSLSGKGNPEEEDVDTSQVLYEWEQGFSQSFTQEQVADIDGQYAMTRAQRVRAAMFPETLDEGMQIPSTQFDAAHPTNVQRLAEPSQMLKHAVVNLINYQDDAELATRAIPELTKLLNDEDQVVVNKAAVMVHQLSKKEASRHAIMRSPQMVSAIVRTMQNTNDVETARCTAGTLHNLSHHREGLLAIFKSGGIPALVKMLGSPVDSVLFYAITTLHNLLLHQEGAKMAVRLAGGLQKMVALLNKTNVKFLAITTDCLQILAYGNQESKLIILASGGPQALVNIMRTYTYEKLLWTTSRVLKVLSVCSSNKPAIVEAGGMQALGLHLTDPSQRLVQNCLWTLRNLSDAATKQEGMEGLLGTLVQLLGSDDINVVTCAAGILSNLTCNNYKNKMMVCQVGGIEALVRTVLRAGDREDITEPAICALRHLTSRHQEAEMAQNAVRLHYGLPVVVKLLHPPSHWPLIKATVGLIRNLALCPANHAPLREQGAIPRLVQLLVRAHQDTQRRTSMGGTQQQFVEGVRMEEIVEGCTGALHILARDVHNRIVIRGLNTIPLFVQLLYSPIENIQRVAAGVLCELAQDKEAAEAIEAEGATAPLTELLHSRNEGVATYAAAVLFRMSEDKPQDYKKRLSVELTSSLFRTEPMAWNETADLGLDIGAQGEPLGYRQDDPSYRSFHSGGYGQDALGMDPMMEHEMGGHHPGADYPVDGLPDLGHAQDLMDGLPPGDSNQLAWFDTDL
# Solubility in PBS = assay type: physicochemical
# In short: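 PBS sample ultracentrifuged; supernatant run on HPLC vs. 50 μM peptide in DMSO standard. Solubility = (PBS peak area / DMSO peak area) × 50 uM.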
# [2] = fluorescence polarization, read-out: beta-Catenin FP IC50
# [3] = fluorescence polarization, beta-catenin, read-out: FP EC50
# [4] = Table E2-1, read-out: beta-Catenin FP IC50
CHI Log D (CHI Log D procedure),"IC50 [1, 2] [nM]",IC50 ([1]; read-out: FP EC50) [nM],Solubility (Solubility in PBS) [µM],"chromatographic logD (CHI Log D procedure; pH 7.4, CHI Log D)",SMILES,other results
2.448,923,923,47,,"CC[C@H](C)[C@@H]1NC(=O)[C@H](CC(=O)O)NC(=O)[C@]2(CC=CCCCC3(CCCC=CCCCCCC[C@@](C)(C(=O)N[C@@H](Cc4ccccc4)C(=O)N[C@@H](Cc4csc5ccccc45)C(=O)N[C@@H](CCC(N)=O)C(N)=O)NC(=O)[C@H](CCC(N)=O)NC(=O)[C@H](Cc4ccccc4)NC(=O)[C@H](Cc4c[nH]c5ccccc45)NC(=O)[C@H](C)NC(=O)[C@H](CCC(=O)O)NC(=O)[C@H](CC(=O)O)NC3=O)NC1=O)CCCN2C(C)=O (stereo partly drawn) [I-665, Ac-PL3-Asp-Ile-B5-Asp-Glu-Ala-Trp-Phe-Gln-S8-Phe-BztA-Gln-NH2]",
,43,,50,2.63,"CC[C@H](C)[C@@H]1NC(=O)[C@H](CC(=O)O)NC(=O)[C@]2(CC=CCCCC3(CCCC=CCCCCCC[C@@](C)(C(=O)N[C@@H](Cc4ccccc4)C(=O)N[C@@H](Cc4csc5ccccc45)C(=O)N[C@@H](CCC(N)=O)C(N)=O)NC(=O)[C@H](CC(N)=O)NC(=O)[C@H](Cc4ccccc4)NC(=O)[C@H](C)NC(=O)[C@H](C)NC(=O)[C@H](CN(CC(=O)O)CC(F)(F)F)NC(=O)[C@H](CC(=O)O)NC3=O)NC1=O)CCCN2C(C)=O (stereo partly drawn) [I-699, Ac-PL3-Asp-Ile-B5-Asp-TfeGA-Ala-Ala-Phe-Asn-S8-Phe-BztA-Gln-NH2]",
,,,,2.29,"CC(=O)N1CCC[C@]12CC=CCCCC1(CCCC=CCCCOC(=O)N3CC[C@@](C(=O)N[C@@H](Cc4ccccc4Cl)C(=O)N[C@@H](Cc4csc5ccccc45)C(=O)N[C@@H](CO)C(N)=O)(C3)NC(=O)[C@H]([C@@H](C)O)NC(=O)[C@H](Cc3ccccc3)NC(=O)[C@H](C)NC(=O)[C@H](C)NC(=O)[C@H](CC(=O)O)NC(=O)[C@H](CC(=O)O)NC1=O)NC(=O)[C@H](Cc1ccccc1)NC(=O)[C@H](CC(=O)O)NC2=O (stereo partly drawn) [I-1049, Ac-PL3-Asp-Phe-B5-Asp-Asp-Ala-Ala-Phe-Thr-PyrS2-2C1F-BztA-Ser-NH2]",IC50 ([1]; read-out: beta-Catenin FP IC50): 6 nM; Solubility (Solubility in PBS; Solubility (uM)): 48 µM

# Second part, the compound before the results:
SMILES,CHI Log D (CHI Log D procedure),"IC50 [1, 2] [nM]",IC50 ([1]; read-out: FP EC50) [nM],Solubility (Solubility in PBS) [µM],"chromatographic logD (CHI Log D procedure; pH 7.4, CHI Log D)",other results
"CC(=O)N1CCC[C@]12CC=CCCCC1(CCCC=CCCCOC(=O)N3CC[C@@](C(=O)N[C@@H](Cc4ccsc4)C(=O)N[C@@H](Cc4csc5ccccc45)C(=O)N[C@@H](CC(C)C)C(N)=O)(C3)NC(=O)[C@H](CC(N)=O)NC(=O)[C@H](Cc3ccccc3)NC(=O)[C@H](C)NC(=O)[C@H](C)NC(=O)[C@H](CN(CC(=O)O)CC(F)(F)F)NC(=O)[C@H](CC(=O)O)NC1=O)NC(=O)[C@H](CC(C)(C)C)NC(=O)[C@H](CC(=O)O)NC2=O (stereo partly drawn) [I-946, Ac-PL3-Asp-Npg-B5-Asp-TfeGA-Ala-Ala-Phe-Asn-PyrS2-3Thi-BztA-Leu-NH2]",2.209,,,47,,"IC50 [1, 3]: 798 nM; IC50 ([1]; read-out: beta-Catenin FP IC50): 798 nM"
"CC[C@H](C)[C@@H]1NC(=O)[C@H](CC(=O)O)NC(=O)[C@]2(CC=CCCCC3(CCCC=CCCCCCC[C@@](C)(C(=O)N[C@@H](Cc4ccccc4)C(=O)N[C@@H](Cc4csc5ccccc45)C(=O)N[C@@H](CCC(N)=O)C(N)=O)NC(=O)[C@H](CCC(N)=O)NC(=O)[C@H](Cc4ccccc4)NC(=O)[C@H](C)NC(=O)[C@H](C)NC(=O)[C@H](CCCC(=O)O)NC(=O)[C@H](CC(=O)O)NC3=O)NC1=O)CCCN2C(C)=O (stereo partly drawn) [I-612, Ac-PL3-Asp-Ile-B5-Asp-Aad-Ala-Ala-Phe-Gln-S8-Phe-BztA-Gln-NH2]",,,,49,2.41,"chromatographic logD (CHI Log D procedure; pH 7.4, LogD): 2.4; IC50 ([1]; read-out: bCat FP IC50): 64 nM; Solubility (Solubility in PBS; Solubility (uM)): > 25 µM"
"CC(=O)N1CCC[C@]12CC=CCCCC1(CCCC=CCCCCCC[C@@](C)(C(=O)N[C@@H](Cc3ccccc3)C(=O)N[C@@H](Cc3csc4ccccc34)C(=O)N[C@@H](CCC(N)=O)C(N)=O)NC(=O)[C@H](CC(N)=O)NC(=O)[C@H](Cc3ccccc3)NC(=O)[C@H](C)NC(=O)[C@H](C)NC(=O)[C@H](CC(=O)O)NC(=O)[C@H](CC(=O)O)NC1=O)NC(=O)[C@H](C)NC(=O)[C@H](CC(=O)O)NC2=O (stereo partly drawn) [I-343, Ac-PL3-Asp-Ala-B5-Asp-Asp-Ala-Ala-Phe-Asn-S8-Phe-BztA-Gln-NH2]",1.931,,,50,,"IC50 [1, 4]: 172 nM; IC50 [1, 3]: 172 nM"
"CC(=O)N1CCC[C@]12CC=CCCCC1(CCCC=CCCCCCC[C@@](C)(C(=O)N[C@@H](Cc3ccccc3)C(=O)N[C@@H](Cc3csc4ccccc34)C(=O)N[C@@H](CCC(N)=O)C(N)=O)NC(=O)[C@H](CCC(N)=O)NC(=O)[C@H](Cc3ccccc3)NC(=O)[C@H](C)NC(=O)[C@H](C)NC(=O)[C@H](CCC(=O)O)NC(=O)[C@H](CC(=O)O)NC1=O)NC(=O)[C@H](C)NC(=O)[C@H](CC(=O)O)NC2=O (stereo partly drawn) [I-406, Ac-PL3-Asp-Ala-B5-Asp-Glu-Ala-Ala-Phe-Gln-S8-Phe-BztA-Gln-NH2]",,94,,,2.04,Solubility (Solubility in PBS; Solubility (uM)): 28 µM
"CC(=O)N1CCC[C@]12CC=CCCCC1(CCCC=CCCCCCC[C@@](C)(C(=O)N[C@@H](Cc3cccc(F)c3)C(=O)N[C@@H](Cc3csc4ccccc34)C(=O)N[C@@H](CCC(N)=O)C(N)=O)NC(=O)[C@H](C(C)C)NC(=O)[C@H](Cc3ccccc3)NC(=O)[C@H](C)NC(=O)[C@H](C)NC(=O)[C@H](CC(N)=O)NC(=O)[C@H](CC(=O)O)NC1=O)NC(=O)[C@H](C)NC(=O)[C@H](CC(=O)O)NC2=O (stereo partly drawn) [I-382, Ac-PL3-Asp-Ala-B5-Asp-Asn-Ala-Ala-Phe-Val-S8-3FF-BztA-Gln-NH2]",2.631,,,10,,"IC50 [1, 4]: 2060 nM; IC50 [1, 3]: 2060 nM"
"CC[C@H](C)[C@H](NC(=O)[C@H](Cc1c[nH]cn1)NC(=O)[C@H](Cc1csc2ccccc12)NC(=O)[C@H](Cc1ccccc1)NC(=O)[C@]1(C)CCCCCCC=CCCCC2(CCCC=CC[C@]3(CCCN3C(C)=O)C(=O)N[C@@H](CC(=O)O)C(=O)N[C@@H](CC(C)C)C(=O)N2)C(=O)N[C@@H](CC(=O)O)C(=O)N[C@@H](CCC(=O)O)C(=O)N[C@@H](C)C(=O)N[C@@H](C)C(=O)N[C@@H](Cc2ccccc2)C(=O)N[C@@H](CC(N)=O)C(=O)N1)C(N)=O (stereo partly drawn) [I-741, Ac-PL3-Asp-Leu-B5-Asp-Glu-Ala-Ala-Phe-Asn-S8-Phe-BztA-His-Ile-NH2]",2.915,226,226,10,,
"CC(=O)N1CCC[C@]12CC=CCCCC1(CCCC=CCCCCCC[C@@](C)(C(=O)N[C@@H](Cc3ccccc3)C(=O)N[C@@H](Cc3csc4ccccc34)C(=O)N[C@@H](CCC(N)=O)C(N)=O)NC(=O)[C@H](CC(N)=O)NC(=O)[C@H](Cc3ccccc3)NC(=O)[C@H](C)NC(=O)[C@H](C)NC(=O)[C@H](CCC(=O)O)NC(=O)[C@H](CC(=O)O)NC1=O)NC(=O)[C@H](C)NC(=O)[C@H](CC(=O)O)NC2=O (stereo partly drawn) [I-425, Ac-PL3-Asp-Ala-B5-Asp-Glu-Ala-Ala-Phe-Asn-S8-Phe-BztA-Gln-NH2]",2.01,50,50,45,,
"CC(=O)N1CCC[C@]12CC=CCCCC1(CCCC=CCCCCCC[C@@](C)(C(=O)N[C@@H](Cc3ccccc3)C(=O)N[C@@H](Cc3csc4ccccc34)C(=O)N[C@@H](Cc3c[nH]cn3)C(N)=O)NC(=O)[C@H](CCC(N)=O)NC(=O)[C@H](Cc3ccccc3)NC(=O)[C@H](C)NC(=O)[C@H](C)NC(=O)[C@H](CCC(=O)O)NC(=O)[C@H](CC(=O)O)NC1=O)NC(=O)[C@H](C)NC(=O)[C@H](CC(=O)O)NC2=O (stereo partly drawn) [I-418, Ac-PL3-Asp-Ala-B5-Asp-Glu-Ala-Ala-Phe-Gln-S8-Phe-BztA-His-NH2]",2.089,149,149,32,,

# Reference: patent US20240116985A1, “STAPLED PEPTIDES AND METHODS THEREOF” (priority 2020, published 2024)
